According to patent publication EP0505220A1, “New compounds for use in the treatment of cancer” (JARMAN, Michael, priority 1991, dated 1992):

What was measured:
[1] = Stability of the hydroxymethyl function in human plasma (HPLC); type: in vitro ADME; conditions: human plasma at 37°C, 100 µg/ml; read-out: half-life values for the release of product (9) in human plasma
Experimental: Stability Studies. The influence of the trifluoromethyl substituent on the stability of the hydroxymethyl function under simulated physiological conditions was determined for compound (10) containing contiguous hydroxymethyl and […] functions. General Procedure (for 10). To fresh human plasma (9.9 ml) pre-warmed to 37°C was added a solution of the compound to be studied in dimethylsulphoxide (0.1 ml; 10mg/ml) to give a final concentration of 100 µg/ml. At intervals of 0, 5, 10, 15, 20, 30, 40, 50, 60, 75, 90, 105 and 120 min, aliquots (0.5 ml) were withdrawn and added to ice-cold MeOH (1ml). After centrifugation at 4°C the supernatants were placed in cooled vials on a cold plate (3°C) and aliquots (25 µl) analysed by HPLC using an autosampler. The column used was a C6 (Spherisorb) 15cm x 4.6 mm with a precolumn, and was eluted with MeOH:0.05 M aq. NH₄HCO₃, 55:45, at a flow rate of 1.5 ml min⁻¹. Products were monitored by absorbance at 225 nm. Retention times were: for (10) 11.0 min and for its breakdown product (9) 9.6 min. […] Biological Results. The anti-tumour activities of the compounds of the invention against ADJ/PC6 tumour in mice and against human ovarian tumour cell lines were compared with that of trimelamol (1).

ADJ/PC6 tumour = experiment: Antitumour activity towards the ADJ/PC6 tumour in mice; type: in vivo; conditions: for Highest % inhibition: dose (mg/kg)
[2] = Toxicity (LD50) in the ADJ/PC6 mouse study; conditions: in vivo
[3] = tested on: GCT human testicular germ cell tumour cell line; experiment: Activity in vitro towards GCT cell line; type: cell-based; conditions: at least in duplicate, read-out: IC₅₀ GCT
Experimental: (§1) Results expressed as µM (IC₅₀ values). All experiments were conducted at least in duplicate.

[4] = tested on: cisplatin-resistant cell-lines; experiment: Activity in vitro towards cisplatin-resistant cell lines; type: cell-based, human; conditions: Table 4 (image)
Excerpt: Of particular interest is that compounds (5) and (13) show high activity against cisplatin-resistant cell-lines.

[5] = tested on: GCT/CIS R 6-fold platinum resistant variant of above; experiment: Activity in vitro towards GCT/CIS R cell line; type: cell-based; conditions: Homo sapiens; 6-fold platinum resistant variant of GCT; at least in duplicate; read-out: IC₅₀ GCT/CIS R
Experimental: as §1

[6] = tested on: human ovarian tumour cell lines; experiment: Activity in vitro towards ovarian cell lines; type: cell-based; conditions: Table 4 (image)
[7] = tested on: L-1210 murine lymphocytic leukaemia; experiment: Activity in vitro towards L-1210 cell line; type: cell-based; conditions: Mus musculus, L1210, at least in duplicate, read-out: IC₅₀ L-1210
Experimental: as §1

PC6 Murine plasmacytoma = experiment: Activity in vitro towards PC6 cell line; type: cell-based; conditions: for IC50: PC-6, PC6 Murine plasmacytoma, at least in duplicate, read-out: IC₅₀ PC6
Experimental: as §1

[8] = Judson et al. 1989; cited from earlier work
[9] = tested on: H69 human small cell lung cancer cell line; experiment: Activity in vitro towards H69 cell line; type: cell-based; conditions: NCI-H69, at least in duplicate, read-out: IC₅₀ H69
Experimental: as §1

**Q.** With `CN(C)c1nc(N(C)C)nc(N(C)CO)n1` [N-hydroxymethylpentamethylmelamine, reference compound] as the molecule, how does the half-life [1] read?
**A.** Its half-life is 30 min.

**Q.** With `FC(F)(F)CNc1nc(NCC(F)(F)F)nc(NCC(F)(F)F)n1` [Compound 3, 2,4,6-Tris[(2,2,2-Trifluoroethyl)amino]-1,3,5-triazine] as the molecule, how does the Highest % inhibition (ADJ/PC6 tumour) read?
**A.** Its Highest % inhibition is “none^b (none - less than 40%)”.

**Q.** And the LD50 [2]?
**A.** The LD50 was 71 mg/kg.

**Q.** Which Highest % inhibition (ADJ/PC6 tumour) does the source give for `OCN(CC(F)(F)F)c1nc(NCC(F)(F)F)nc(NCC(F)(F)F)n1` [Compound 4, 2-(Hydroxymethyl)(2,2,2-trifluoroethyl)amino-4,6-bis[(2,2,2-trifluoroethyl)amino]-1,3,5-triazine] here?
**A.** The Highest % inhibition was 40 (5 x 50) %.

**Q.** And the LD50 [2]?
**A.** Its LD50 is 117 mg/kg.

**Q.** With `C#CCN(CO)c1nc(N(CO)CC#C)nc(N(CO)CC#C)n1` [Compound 13, 2,4,6-Tris[(hydroxymethyl)(propargyl)amino]-1,3,5-triazine] as the molecule, how does the IC50 [3] read?
**A.** The IC50 was 48.9 µM.

**Q.** What about the Highest % inhibition (ADJ/PC6 tumour) of the same molecule?
**A.** The Highest % inhibition was “none (none - less than 40%)”.

**Q.** What about the “activity against cisplatin-resistant cell-lines” value [4] of the same molecule?
**A.** The value was “high activity”.

**Q.** And the IC50 [5]?
**A.** The IC50 was 41.8 µM.

**Q.** And the “potency in a variety of ovarian cell lines compared with (1)” value [6]?
**A.** Its value is “virtually equipotent with (1)”.

**Q.** What about the LD50 [2] of the same molecule?
**A.** Its LD50 is 280 mg/kg.

**Q.** What about the IC50 [7] of the same molecule?
**A.** Its IC50 is 50.7 µM.

**Q.** And the IC50 (PC6 Murine plasmacytoma)?
**A.** Its IC50 is 36.8 µM.

**Q.** Which “activity against cisplatin-resistant cell-lines” value [4] does the source give for `OCN(CC(F)(F)F)c1nc(N(CO)CC(F)(F)F)nc(N(CO)CC(F)(F)F)n1` [Compound 5, 2,4,6-Tris[(Hydroxymethyl)(2,2,2-trifluoroethyl)amino]-1,3,5-triazine] here?
**A.** Its value is “high activity”.

**Q.** And the “potency in a variety of ovarian cell lines compared with (1)” value [6]?
**A.** Its value is “virtually equipotent with (1)”.

**Q.** What about the IC50 [7] of the same molecule?
**A.** The IC50 was 48.6 µM.

**Q.** What about the IC50 (PC6 Murine plasmacytoma) of the same molecule?
**A.** The IC50 was 38.2 µM.

**Q.** Which half-life [1] does the source give for `CN(C)c1nc(N(C)C)nc(N(CO)CC(F)(F)F)n1` [Compound 10, 2,4-Bis(Dimethylamino)-6-(hydroxymethyl)(2,2,2,trifluoroethyl)-amino-1,3,5-triazine] here?
**A.** Its half-life is 45 min.

**Q.** For “2-(Hydroxyethyl)(2,2,2-trifluoroethyl)amino-4-methyl-6-(2,2,2-trifluoroethyl)amino-1,3,5-triazine [Compound 7]”, which Highest % inhibition (ADJ/PC6 tumour) is on record?
**A.** Its Highest % inhibition is 56 (5 x 25) %.

**Q.** What does the source list for `CN(CO)c1nc(N(C)CO)nc(N(C)CO)n1` [Compound 1, 2,4,6-tris{(hydroxymethyl)(methyl)amino}-1,3,5-triazine, reference compound]?
**A.** IC50 [3]: 24.3 µM; Therapeutic Index LD50/ED90 (ADJ/PC6 tumour): 3.1; ED90 (ADJ/PC6 tumour; Mus musculus): 45 mg/kg; Highest % inhibition (ADJ/PC6 tumour): 96 (5 x 100) %; half-life in humans [8]: short; IC50 [5]: 25.9 µM; LD50 [2]: 140 mg/kg; IC50 [9]: 8.7 µM; IC50 [7]: 41.7 µM; potency against the ADJ/PC6 tumour cell line in vitro relative to the other compounds (PC6 Murine plasmacytoma; (1) versus (5), (6) and (13)): greater than 3 fold; IC50 (PC6 Murine plasmacytoma): 10.1 µM

**Q.** Which results are given for `OCOCN(CC(F)(F)F)c1nc(N(CO)CC(F)(F)F)nc(N(CO)CC(F)(F)F)n1` [Compound 6, 2-[([hydroxymethoxy]methyl)(2,2,2-trifluoroethyl)amino]-4,6-bis(hydroxymethyl)(2,2,2-trifluoroethyl)-amino-1,3,5-triazine]?
**A.** IC50 [3]: 25.8 µM; Highest % inhibition (ADJ/PC6 tumour): 65 (5 x 12.5) %; IC50 [5]: 23.7 µM; LD50 [2]: 280 mg/kg; IC50 (PC6 Murine plasmacytoma): 34.4 µM
